Measurements as given in ChEMBL document CHEMBL5244278, “Bioisosteres of the Phenyl Ring: Recent Strategic Applications in Lead Optimization and Drug Design” (J Med Chem, 2021).
≈ marks a conversion by molar mass, not a printed value.

Key:
[1] = biological target: Tyrosine-protein kinase ABL1 (Homo sapiens, UniProt P00519); test: Inhibition of ABL1 (unknown origin)
[2] = Metabolic stability in human liver microsomes assessed as parent compound remaining; format: ADME, Microsome
[3] = Dissociation constant, pKa of the compound; format: physicochemical
MDA-MB-231 = test: Antiproliferative activity against human MDA-MB-231 cells assessed as cell growth inhibition at 30 uM relative to control; format: functional
MIA PaCa-2 = test: Antiproliferative activity against human MIA PaCa-2 cells assessed as cell growth inhibition at 30 uM relative to control; format: functional
SU-DHL10 = test: Antiproliferative activity against human SU-DHL-10 cells assessed as cell growth inhibition at 30 uM relative to control; format: functional
[4] = Lipophilicity, logD of the compound at pH 7.4; format: physicochemical; conditions: buffer
[5] = Aqueous solubility of compound at pH 7.4; format: physicochemical
[6] = Half life in rat hepatocytes; format: ADME, cell-based, Hepatocyte
[7] = Solubility of compound at pH 6.8 by RapidFire mass spectrometry; format: physicochemical; conditions: buffer
[8] = Solubility of the compound in FaSSIF at pH 6.8 by RapidFire mass spectrometry; format: ADME; conditions: simulated gi fluid
[9] = Clearance in rat liver microsomes; format: ADME, Microsome
CYP3A4 = CYP3A4 (Homo sapiens, UniProt P08684); test: Inhibition of CYP3A4 (unknown origin); format: ADME
CYP3A4, sequence (P08684 whole entry): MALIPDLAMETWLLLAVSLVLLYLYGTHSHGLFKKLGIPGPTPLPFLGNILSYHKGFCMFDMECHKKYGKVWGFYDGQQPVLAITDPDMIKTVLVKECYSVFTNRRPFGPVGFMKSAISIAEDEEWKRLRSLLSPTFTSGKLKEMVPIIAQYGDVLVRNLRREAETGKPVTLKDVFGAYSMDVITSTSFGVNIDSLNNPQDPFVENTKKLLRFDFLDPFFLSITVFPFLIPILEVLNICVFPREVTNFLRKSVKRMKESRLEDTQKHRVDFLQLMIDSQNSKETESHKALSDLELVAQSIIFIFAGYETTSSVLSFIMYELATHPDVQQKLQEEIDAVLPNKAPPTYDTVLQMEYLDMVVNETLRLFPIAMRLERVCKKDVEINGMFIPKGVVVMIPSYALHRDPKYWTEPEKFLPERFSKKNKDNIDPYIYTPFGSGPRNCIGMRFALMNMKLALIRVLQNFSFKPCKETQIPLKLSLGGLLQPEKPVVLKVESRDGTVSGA

[10] = Inhibition of MAPK (unknown origin); design: species or system Homo sapiens
physchem = conditions: buffer, pH 7.4
[11] = Inhibition of WNT (unknown origin) by luciferase reporter assay; design: species or system Homo sapiens
Trypanosoma cruzi = test: Antitrypanosomal activity against Trypanosoma cruzi trypomastigotes infected in mouse 3T3 cells assessed as reduction in parasite growth; format: functional, organism-based; conditions: NIH3T3
[12] = Inhibition of LFA-1/ICAM-1 (unknown origin) interaction; design: species or system Homo sapiens
Hepatitis C virus [13] = test: microbe, parasite or virus in culture; conditions: GT1a-genotype
Hepatitis C virus [14] = test: microbe, parasite or virus in culture; conditions: GT1b-genotype
[15] = Solubility of the compound; format: physicochemical
[16] = Prodrug conversion in rat plasma assessed as esterase mediated intermediate formation by measuring half life; format: ADME, cell-free
[17] = Prodrug conversion in rat plasma assessed as formation of Isavuconazole from intermediate by measuring half life; format: ADME, cell-free
Hepatitis C virus [18] = test: Antiviral activity against HCV GT3a-genotype assessed as inhibition of viral replication; format: functional, organism-based, Hepacivirus hominis
Hepatitis C virus [19] = test: Antiviral activity against HCV GT2a-genotype assessed as inhibition of viral replication; format: functional, organism-based, Hepacivirus hominis
Hepatitis C virus [20] = test: Antiviral activity against HCV GT4a-genotype assessed as inhibition of viral replication; format: functional, organism-based, Hepacivirus hominis
Influenza A virus = test: Antiviral activity against Influenza A virus A/PR/8/34 (PR8) strain infected in MDCK cells assessed as reduction in viral infection incubated for 72 hrs by crystal violet staining based assay; format: functional, organism-based
[21] = biological target: Beta-2 adrenergic receptor (Bos taurus, UniProt Q28044); test: Antagonist activity at bovine lung membrane adrenergic beta-2 receptor; format: cell membranes
Beta-2 adrenergic receptor, sequence (Q28044 whole entry): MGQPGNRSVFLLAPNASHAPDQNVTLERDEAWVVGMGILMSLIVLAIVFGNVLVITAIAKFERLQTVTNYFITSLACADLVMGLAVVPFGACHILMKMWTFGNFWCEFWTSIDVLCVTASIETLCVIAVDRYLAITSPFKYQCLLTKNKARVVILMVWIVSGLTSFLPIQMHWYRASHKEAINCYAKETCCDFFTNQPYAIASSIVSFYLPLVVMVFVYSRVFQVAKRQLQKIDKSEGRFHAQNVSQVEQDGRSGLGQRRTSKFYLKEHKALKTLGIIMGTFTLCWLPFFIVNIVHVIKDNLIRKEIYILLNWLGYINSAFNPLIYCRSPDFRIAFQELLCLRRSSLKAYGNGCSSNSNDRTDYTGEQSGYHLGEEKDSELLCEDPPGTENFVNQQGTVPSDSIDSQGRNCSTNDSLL

[22] = biological target: Beta-1 adrenergic receptor (Rattus norvegicus, UniProt P18090)
Beta-1 adrenergic receptor, sequence (P18090 whole entry): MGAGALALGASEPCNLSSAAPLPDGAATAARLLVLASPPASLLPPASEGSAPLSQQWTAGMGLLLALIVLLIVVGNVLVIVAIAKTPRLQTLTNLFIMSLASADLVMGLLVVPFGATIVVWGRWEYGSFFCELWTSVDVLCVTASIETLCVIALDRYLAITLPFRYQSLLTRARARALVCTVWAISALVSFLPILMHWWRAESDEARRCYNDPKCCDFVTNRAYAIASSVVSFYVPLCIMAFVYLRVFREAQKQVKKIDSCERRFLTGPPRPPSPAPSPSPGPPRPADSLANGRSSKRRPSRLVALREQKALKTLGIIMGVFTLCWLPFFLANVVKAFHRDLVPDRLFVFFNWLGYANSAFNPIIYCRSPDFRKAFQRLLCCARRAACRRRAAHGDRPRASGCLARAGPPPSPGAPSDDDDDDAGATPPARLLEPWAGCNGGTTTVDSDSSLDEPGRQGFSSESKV

[23] = Inhibition of human rhinovirus 3C protease; design: species or system Human rhinovirus sp.
Human rhinovirus sp. = test: Inhibition of human rhinovirus 3C protease assessed as kobs/[I]
[24] = Aqueous solubility of compound; format: physicochemical
in vitro [25] = conditions: human, liver microsomes
in vitro [26] = conditions: human, Caco-2
[27] = biological target: Voltage-gated inwardly rectifying potassium channel KCNH2 (Homo sapiens, UniProt Q12809); test: Inhibition of hERG channel; format: toxicity
Voltage-gated inwardly rectifying potassium channel KCNH2, sequence (Q12809 whole entry): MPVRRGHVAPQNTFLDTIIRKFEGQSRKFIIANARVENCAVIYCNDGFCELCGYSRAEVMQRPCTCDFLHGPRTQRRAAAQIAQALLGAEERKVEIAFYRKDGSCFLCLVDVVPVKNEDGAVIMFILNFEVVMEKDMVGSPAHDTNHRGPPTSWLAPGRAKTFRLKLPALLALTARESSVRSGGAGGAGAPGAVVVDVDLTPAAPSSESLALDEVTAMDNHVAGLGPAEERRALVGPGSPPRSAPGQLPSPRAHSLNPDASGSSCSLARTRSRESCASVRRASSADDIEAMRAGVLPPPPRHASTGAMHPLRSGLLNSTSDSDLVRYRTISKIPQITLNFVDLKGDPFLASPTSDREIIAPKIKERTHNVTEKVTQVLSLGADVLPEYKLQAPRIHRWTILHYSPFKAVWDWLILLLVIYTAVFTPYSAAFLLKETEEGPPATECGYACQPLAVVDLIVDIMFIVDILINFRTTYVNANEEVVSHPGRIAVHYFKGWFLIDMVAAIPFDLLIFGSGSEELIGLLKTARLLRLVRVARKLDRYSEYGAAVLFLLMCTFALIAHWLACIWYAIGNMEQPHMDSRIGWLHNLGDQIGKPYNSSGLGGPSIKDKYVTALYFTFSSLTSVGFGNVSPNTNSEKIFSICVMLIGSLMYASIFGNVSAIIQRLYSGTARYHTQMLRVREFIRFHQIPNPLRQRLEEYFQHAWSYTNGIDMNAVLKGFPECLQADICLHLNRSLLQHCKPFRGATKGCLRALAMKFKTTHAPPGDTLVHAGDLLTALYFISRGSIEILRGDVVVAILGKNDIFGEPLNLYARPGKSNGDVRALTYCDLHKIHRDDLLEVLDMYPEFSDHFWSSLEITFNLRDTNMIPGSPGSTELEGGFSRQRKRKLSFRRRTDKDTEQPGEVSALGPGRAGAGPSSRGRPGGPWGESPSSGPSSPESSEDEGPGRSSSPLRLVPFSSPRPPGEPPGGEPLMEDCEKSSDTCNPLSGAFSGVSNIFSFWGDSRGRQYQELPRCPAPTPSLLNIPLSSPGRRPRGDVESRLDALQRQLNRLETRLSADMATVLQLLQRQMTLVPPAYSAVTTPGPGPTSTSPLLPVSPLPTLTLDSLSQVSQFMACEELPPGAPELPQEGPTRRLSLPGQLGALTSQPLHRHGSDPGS

Tyrosine-protein kinase ABL1, sequence (P00519 whole entry): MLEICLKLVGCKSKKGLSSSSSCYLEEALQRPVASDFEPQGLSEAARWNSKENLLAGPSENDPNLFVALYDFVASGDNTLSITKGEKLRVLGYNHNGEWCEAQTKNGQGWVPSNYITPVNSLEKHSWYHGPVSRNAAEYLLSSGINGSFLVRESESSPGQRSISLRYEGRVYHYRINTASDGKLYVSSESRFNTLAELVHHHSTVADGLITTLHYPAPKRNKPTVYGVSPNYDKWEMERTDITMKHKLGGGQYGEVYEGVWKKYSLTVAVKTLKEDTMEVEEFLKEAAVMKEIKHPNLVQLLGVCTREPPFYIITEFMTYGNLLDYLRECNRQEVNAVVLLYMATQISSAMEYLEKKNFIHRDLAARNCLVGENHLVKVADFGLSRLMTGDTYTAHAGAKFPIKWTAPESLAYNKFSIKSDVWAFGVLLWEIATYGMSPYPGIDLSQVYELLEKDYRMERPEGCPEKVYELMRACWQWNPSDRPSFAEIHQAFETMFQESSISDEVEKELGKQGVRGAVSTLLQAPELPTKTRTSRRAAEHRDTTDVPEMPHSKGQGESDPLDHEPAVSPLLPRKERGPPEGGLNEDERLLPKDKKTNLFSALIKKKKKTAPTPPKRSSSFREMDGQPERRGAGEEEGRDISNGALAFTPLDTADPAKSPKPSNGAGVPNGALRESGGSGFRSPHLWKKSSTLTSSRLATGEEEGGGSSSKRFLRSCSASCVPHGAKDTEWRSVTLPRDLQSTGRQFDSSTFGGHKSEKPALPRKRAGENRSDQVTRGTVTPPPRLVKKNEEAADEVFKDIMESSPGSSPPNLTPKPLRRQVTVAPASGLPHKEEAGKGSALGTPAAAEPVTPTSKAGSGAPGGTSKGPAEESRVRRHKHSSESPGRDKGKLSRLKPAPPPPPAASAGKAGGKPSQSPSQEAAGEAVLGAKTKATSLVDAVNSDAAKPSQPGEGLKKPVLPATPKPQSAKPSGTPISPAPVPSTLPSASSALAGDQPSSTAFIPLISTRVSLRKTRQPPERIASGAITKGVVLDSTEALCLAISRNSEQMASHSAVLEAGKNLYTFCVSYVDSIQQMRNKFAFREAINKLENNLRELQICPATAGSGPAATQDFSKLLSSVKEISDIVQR

Cc1ccc(NC(=O)[C@H]2C[C@@H]2CN2CCN(C)CC2)cc1Nc1nccc(-c2cccnc2)n1
IC50 [1]: > 1000 nM

CN1CCN(c2ccc(Nc3cc(C4CC4)[nH]n3)nn2)CC1
Stability [2]: 81%

NC12CC(C1)C2
pKa [3]: 11

CN1CCN(c2ccc(Nc3cc(C4CC4)[nH]n3)nc2)CC1
Stability [2]: 73%

Oc1ccc(/C=C/c2cc(O)cc(O)c2)cc1 [RESVERATROL]
inhibition at 30 µM (MDA-MB-231): 20%
inhibition at 30 µM (MIA PaCa-2): 30%
inhibition at 30 µM (SU-DHL10): 46%
logD [4]: 2.9
solubility [5]: 19 µg/mL (≈ 83.2 µM)
half-life [6]: < 7.5 min

COc1ccccc1N1CCN(CCCCNC(=O)c2ccc(-c3ccccc3)cc2)CC1
solubility [7]: < 0.005 µM
solubility [8]: 0.021 µM (≈ 9.32 ng/mL)
CLhep predicted [9]: 51 mL/min/kg
IC50 (CYP3A4): > 20000 nM

NC12CCC(CC1)CC2
pKa [3]: 11

COCCn1c(SC)nc(-c2ccc(F)cc2)c1-c1cccc(NC(=O)CCc2ccccc2OC)c1
IC50 [10]: 93 nM
solubility (physchem): 0.0255 µg/mL

Cc1cc(-c2ccc(CNC(=O)C34CC(c5cnccn5)(C3)C4)cc2)ccn1
EC50 [11]: > 50 nM

O=C(Cn1ccnc1[N+](=O)[O-])NCc1ccccc1 [BENZNIDAZOLE]
EC50 (Trypanosoma cruzi): 6100 nM

Cc1ccc(NC(=O)[C@H]2C[C@@H](CN3CCN(C)CC3)C2)cc1Nc1nccc(-c2cccnc2)n1
IC50 [1]: > 1000 nM

NC12CCC(CC1)C2
pKa [3]: 11

O=C(c1ccccc1-c1ccccc1)N1CCCCC1
logD [4]: 3.5
solubility (physchem): 397 µM

CC(=O)N1CCN(c2cc(-c3ccc(Sc4ccccc4C(C)C)c(C(F)(F)F)c3)ccn2)CC1
IC50 [12]: 93 nM

COC(=O)N[C@@H](C(=O)N1CCC[C@@H]1c1ncc(-c2cc3sc(-c4cnc([C@H]5CCCN5C(=O)[C@H](NC(=O)OC)C(C)C)[nH]4)cc3s2)[nH]1)C(C)C
EC50 (Hepatitis C virus [13]): 10 nM
EC50 (Hepatitis C virus [14]): < 1 nM

CNCC(=O)OCc1ccccc1N(C)C(=O)OC(C)[n+]1cnn(C[C@](O)(c2cc(F)ccc2F)[C@H](C)c2nc(-c3ccc(C#N)cc3)cs2)c1 (stereo partly drawn)
solubility [15]: 1000 µg/mL
t1/2 [16]: < 2 min
t1/2 [17]: 13 min

COC(=O)N[C@@H](C(=O)N1CCC[C@@H]1c1ncc(-c2ccc(-c3cc4oc(-c5cnc([C@H]6CCCN6C(=O)[C@H](NC(=O)OC)C(C)C)[nH]5)cc4s3)cc2)[nH]1)C(C)C
EC50 (Hepatitis C virus [14]): < 1 nM

CNCC(=O)OCc1cccnc1N(C)C(=O)OC(C)[n+]1cnn(C[C@](O)(c2cc(F)ccc2F)[C@H](C)c2nc(-c3ccc(C#N)cc3)cs2)c1 (stereo partly drawn)
solubility [15]: > 100000 µg/mL
t1/2 [16]: < 1 min
t1/2 [17]: < 1 min

Cc1ccc(NC(=O)C23CC(CN4CCN(C)CC4)(C2)C3)cc1Nc1nccc(-c2cccnc2)n1
IC50 [1]: > 1000 nM
solubility (physchem): 2680 µM

N#Cc1ccc(Br)cc1
solubility (physchem): 194 µg/mL

CN1CCN(c2ccc(Nc3cc(C4CC4)[nH]n3)cc2)CC1
Stability [2]: 92%

CC(=O)Nc1nc2c(Oc3cc(N4CCN(CC(F)(F)F)CC4)ncn3)cccc2s1
solubility [15]: > 200 µg/mL

COC(=O)N[C@@H](C(=O)N1CCC[C@@H]1c1ncc(-c2ccc(-n3ccc4c(-c5cnc([C@H]6CCCN6C(=O)[C@H](NC(=O)OC)C(C)C)[nH]5)csc43)c(Cl)c2)[nH]1)C(C)C
EC50 (Hepatitis C virus [14]): < 1 nM

Cc1ccc(NC(=O)[C@H]2C[C@H](CN3CCN(C)CC3)C2)cc1Nc1nccc(-c2cccnc2)n1
IC50 [1]: > 1000 nM
solubility (physchem): 2000 µM

COC(=O)N[C@@H](C(=O)N1CCC[C@@H]1c1ncc(-c2csc3c(-c4cnc([C@H]5CCCN5C(=O)[C@H](NC(=O)OC)C(C)C)[nH]4)csc23)[nH]1)C(C)C
EC50 (Hepatitis C virus [18]): 0.1 nM
EC50 (Hepatitis C virus [19]): < 0.1 nM
EC50 (Hepatitis C virus [20]): < 0.1 nM
EC50 (Hepatitis C virus [13]): < 0.1 nM

Cc1ccc(NC(=O)[C@H]2CC[C@H](CN3CCN(C)CC3)CC2)cc1Nc1nccc(-c2cccnc2)n1
IC50 [1]: > 1000 nM
solubility (physchem): 56 µM

O=C(O)/C(O)=C/C(=O)C1CCCCC1
IC50 (Influenza A virus): 29400 nM

COCCn1c(SC)nc(-c2ccc(F)cc2)c1-c1cccc(NC(=O)CCc2cccc(OC)c2)c1
IC50 [10]: 93 nM
solubility (physchem): 0.275 µg/mL

Cc1ccc(NC(=O)[C@@H]2C[C@H]2CN2CCN(C)CC2)cc1Nc1nccc(-c2cccnc2)n1
IC50 [1]: > 1000 nM
solubility (physchem): 3720 µM

CC(=O)N1CCN(c2nc(-c3ccc(Sc4ccccc4C(C)C)c(C(F)(F)F)c3)cs2)CC1
IC50 [12]: 3000 nM

Cc1cc(-c2ccc(CNC(=O)c3ccc(-c4cnccn4)cc3)cc2)ccn1
EC50 [11]: 0.7 nM

CC(C)NCC(O)c1ccc(Cl)c(Cl)c1 (stereo not drawn) [DICHLOROISOPROTERENOL]
IC50 [21]: 977 nM
IC50 [22]: 115 nM

Oc1cc(O)cc(/C=C/C23CC(O)(C2)C3)c1
inhibition at 30 µM (MDA-MB-231): 22%
inhibition at 30 µM (MIA PaCa-2): 30%
inhibition at 30 µM (SU-DHL10): 41%
logD [4]: 1.9
solubility [5]: 619 µg/mL (≈ 2840 µM)
half-life [6]: 24 min

Cc1ccc(NC(=O)CCCCN2CCN(C)CC2)cc1Nc1nccc(-c2cccnc2)n1
IC50 [1]: > 1000 nM
solubility (physchem): 356 µM

O=C(C1[C@@H]2CC[C@@]1(c1ccccc1)C2)N1CCCCC1 (stereo partly drawn)
logD [4]: 3.7
solubility (physchem): 492 µM

Cc1ccc(NC(=O)[C@@H]2CC[C@H](CN3CCN(C)CC3)C2)cc1Nc1nccc(-c2cccnc2)n1
IC50 [1]: > 1000 nM
solubility (physchem): 885 µM

COC(=O)N[C@@H](C(=O)N1CCC[C@@H]1c1ncc(-c2cn3cc(-c4cnc([C@H]5CCCN5C(=O)[C@H](NC(=O)OC)C(C)C)[nH]4)sc3n2)[nH]1)C(C)C
EC50 (Hepatitis C virus [14]): < 1 nM

CCOC(=O)/C=C/[C@H](C[C@@H]1CCNC1=O)NC(=O)[C@H](Cc1ccc(F)c(F)c1)n1cccc(NC(=O)c2cc(C)on2)c1=O
EC50 [23]: 11 nM
Ratio (Human rhinovirus sp.): 1.8e+06 M/s
solubility [24]: 25 µg/mL (≈ 40.9 µM)
remaining at 0.5 h (in vitro [25]): 19%
Papp A→B (in vitro [26]): 35 ×10⁻⁶ cm/s

O=C(/C=C/c1ccc(Sc2ccc(Cl)cc2Cl)c(Br)c1)NCCCN1CCCC1=O
IC50 [12]: 650 nM

O=C(NCCS(=O)(=O)c1ccc(C(F)(F)F)cn1)c1ccc(-c2ccccc2)cc1
solubility [7]: < 0.004 µM
solubility [8]: < 0.004 µM
CLhep predicted [9]: 39 mL/min/kg
IC50 (CYP3A4): > 20000 nM
IC50 [27]: > 30000 nM

CC(=O)Nc1nc2c(Oc3cc(N4CCN([C@H](C)c5ccc(F)cc5)CC4)ncn3)cccc2s1
solubility [15]: > 200 µg/mL

CC(=O)c1ccccc1C(C)(C)C
solubility (physchem): 12100 µg/mL

CC(C)(C)c1cccc(C(=O)O)c1
solubility (physchem): 8080 µg/mL

CC(C)c1ccccc1Sc1ccc(C2CC2C(=O)NCCCN2CCCC2=O)c(Cl)c1Cl (racemic)
IC50 [12]: 7 nM

N#Cc1ccccc1Br
solubility (physchem): 412 µg/mL

CC(=O)N1CCN(c2nc(-c3ccc(Sc4ccccc4C(C)C)c(C(F)(F)F)c3)co2)CC1
IC50 [12]: 2500 nM

O=C(Cn1ccnc1[N+](=O)[O-])NCC1=C/C=C\C=C/C=C\1
EC50 (Trypanosoma cruzi): 2300 nM

Cc1ccc(NC(=O)CCCCCN2CCN(C)CC2)cc1Nc1nccc(-c2cccnc2)n1
IC50 [1]: > 1000 nM

N#Cc1cccc(Br)c1
solubility (physchem): 637 µg/mL

CC(=O)N1CCN(C(=O)/C=C/c2ccc(Sc3ccccc3C(C)C)c(C(F)(F)F)c2)CC1
IC50 [12]: 60 nM

COCCn1c(SC)nc(-c2ccc(F)cc2)c1-c1cccc(NC(=O)CCc2ccc(OC)cc2)c1
IC50 [10]: 48 nM
solubility (physchem): 0.0473 µg/mL

CC(=O)N1CCN(c2cc(-c3ccc(Sc4ccccc4C(C)C)c(C(F)(F)F)c3)ncn2)CC1
IC50 [12]: 220 nM

COc1ccccc1N1CCN(CCCCNC(=O)c2ccc(B3C=CC=CN3)cc2)CC1
solubility [7]: 0.046 µM (≈ 20.4 ng/mL)
solubility [8]: 0.22 µM (≈ 97.8 ng/mL)
CLhep predicted [9]: 53 mL/min/kg

CC/C=N/OCC(O)CNC(C)(C)C (stereo not drawn)
IC50 [21]: 1550 nM
IC50 [22]: 26300 nM
